The source of these data is patent US20110319339A1, “NEUROTENSIN-DERIVED BRANCHED PEPTIDES AND USES THEREOF” (priority 2008, published 2011).

pEC50: −log10 of the molar value.

For data set [1] the following is noted: compared to NT.
Another data set concerns PC-3. In words: Cytotoxicity of drug-conjugated NT4, MTT growth inhibition. The class given is cell-based, human. The method, then:
(§1) Cells were grown without changing the medium for days. Growth inhibition was assessed by 3-(4,5-dimethylthiazol-2-yl)-2,5-diphenyltetrazolium bromide. EC50 values were calculated by non-linear regression analysis using GraphPaD prism 3.02 software.

Data set [2] in a line: Classification of functionalized branched peptides as fast or slow/non releasing. Particulars: ability to release the functional unit from the carrier peptide.
In another data set the test system is HT-29. In words: Cytotoxicity of drug-conjugated NT4, MTT growth inhibition. The class given is cell-based, human. The conditions noted are these: HT29, best EC50 values, 0.15 to 30 μmol/L. As to the method:
as §1

Data set [3] concerns colon tumors and healthy tissues from the same patient. In words: Binding of fluorophore-conjugated NT4 to human tumor surgical samples versus healthy tissue, confocal fluorescence. Particulars: any tissue sample (colon and pancreas). As to the method:
Each step was followed by washing with TBS. […] Each step was followed by washing with TBS. […] Analogue monomeric peptides were assayed for comparison. […] All images were processed using the ImageJ software (NIH).

Data set [4] has as its system HT-29, PANC-1 and PC-3 tumor cell lines. In words: Cytotoxicity of drug-conjugated NT4, statements on the three cell lines together. It counts as cell-based, human. The method, then: Cells were grown without changing the medium for days.
5-FdU, Monastrol and CBTST were fast released from the adducts. […] The additional washing was performed in order to avoid free drug to diffuse inside the cells during the following six days.

A further data set has as its system HT29 tumors. Put plainly: Tumor growth reduction in mice. The class given is in vivo, CD-1 female nude mice. The conditions noted are these: given six times, dose of 3 μg/kg, time-frame of 10 days.

Procedure for HT29 tumors: In details, CD-1 female nude mice (Charles River Laboratories, Inc.), 5 to 6 weeks of age (mean weight, 20 g), were injected s.c. in the right flank with 1×10^6 HT29 cells. When tumors reached a diameter of 3 to 4 mm (5 days after tumor inoculation) mice were randomly divided into groups (four mice per group) and repeatedly injected in the tail vein (0, 30, 70, 140, 190, 240 hours post first injection) with 500 μL of the following solutions in 0.9% NaCl: (a) 1 mg/mL NT(1-13)4-5FdU (3.05 μmol/kg); (b) 30 μg/mL 5FdU (3.05 μmol/kg); and (c) 0.9% NaCl.
Tumor volumes were measured daily with a caliper using the following formula: volume=length*width2*π/6. 21 days after tumor inoculation, ie 6 days after the last treatment, mice were sacrificed, tumors, removed and weighted. […] Statistical analysis was done using Student's t test (p<0.05).

As for QHWSYGLRPG [LHRH], the “in vitro binding profiles” value in data set [1] is listed as “lower”.

For NT4-peg-Biotin, the IC50 values entry on NT receptor (compared to that of NT4) is “comparable”.

For the compound NT(8-13)4-beta-Ala-Biotin, the “binding activity to NT receptor” value in the data set on NT receptor (compared to NT(8-13)4) is reported as “loose binding activity”.

The compound “NT(8-13)-betaAla-K(PEG-Tirapazamine) [NT4(8-13)-TPZ]” gave a pEC50 with PC-3 (PC3, best EC50 values, 0.15 to 30 μmol/L, MTT) of 6.85. Besides, the “releasing class of the adduct” value in data set [2] was “slow releasing”.

In the data set on HT-29, “NT(8-13)4-betaAla-K(PEG-Chlorambucil) [NT4(8-13)-CLB]” showed a negative-log EC50 (pEC50) of 5.72. Besides, the “releasing class of the adduct” value in data set [2] was “slow releasing”.

With NT(1-13)4, in data set [3], the “binding to tissue sample compared to NT(8-13)4” value is given as “identical”.

`CN(Cc1cnc2nc(N)nc(N)c2n1)c1ccc(C(=O)N[C@@H](CCC(=O)O)C(=O)O)cc1` [MTX, methotrexate]: the “sensitivity of PC-3 cells to the drug” value with PC-3 is listed as “not affected”.

On to `O=C(O)CCCc1ccc(N(CCCl)CCCl)cc1` [CLB, chlorarnbucil], for which the “sensitivity of PC-3 cells to the drug” value in the data set with PC-3 is “not affected”.

Consider “NT(8-13)-betaAla-K(PEG-6-mercaptopurine) [NT4(8-13)-6-MP]”, for which, in data set [4], the “activity compared to the parent free drug” value is given as “no improvement”.

“NT(8-13)-betaAla-K(PEG-5-fluorodeoxyuridine) [NT4(8-13)-5-FdU]”: in the data set on HT-29, the pEC50 is 6.48.

Turning to `O=c1[nH]c(=O)n([C@H]2C[C@H](O)[C@@H](CO)O2)cc1F` [5-FdU, 5-fluoro-2′-deoxyuridine], in the data set on PC-3, the “sensitivity of PC-3 cells to the drug” value is recorded as “not affected”. Also, the “inhibition of tumor growth” value in the data set with HT29 tumors stood at 10%.

On to “NT(8-13)-betaAla-K(PEG-Monastrol) [NT4(8-13)-Mon]”, for which the “activity compared to the parent free drug” value in data set [4] was “no improvement”.

In general, pEC50 refers to the negative decadic logarithm of the EC50, by convention in mol/L. High values mean a small EC50, low ones a large EC50.
